Drawing on paper PMC3796470, “BdorCSP2 Is Important for Antifeed and Oviposition-Deterring Activities Induced by Rhodojaponin-III against Bactrocera dorsalis” (PLoS ONE, 2013), this text covers Kd for two molecules.

Structures are written as SMILES.

For test [1], the target named is T1, BdorCSP2 (Bactrocera dorsalis, UniProt S5TKX2).
T1 construct: gene CSP2; mature BdorCSP2 (signal peptide removed), recombinant from E. coli BL21 (DE3), His-tag-removed; GenBank KC897022
T1 sequence (S5TKX2 23-156): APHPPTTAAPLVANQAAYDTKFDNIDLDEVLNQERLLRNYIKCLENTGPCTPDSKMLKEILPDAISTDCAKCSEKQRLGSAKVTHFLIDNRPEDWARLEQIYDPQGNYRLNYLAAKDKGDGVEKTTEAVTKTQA
As to the kind of experiment: competitive fluorescence binding assay, displacement of 1-NPN.

Test [2] concerns the target T1, BdorCSP2. Put plainly: fluorescent probe titration with Scatchard analysis. Format: binding.

Usually Kd stands for the constant that tells how readily two partners part at equilibrium. With `CC1(C)[C@H]2O[C@H]2[C@H]2[C@](C)(O)[C@@H]3CC[C@@H]4[C@@H](O)[C@@]3(C[C@@H](O)[C@@]21O)C[C@@]4(C)O` [Rhodojaponin-III], binding on BdorCSP2 [1] was put at a Kd of 34.6 µM.

At BdorCSP2 [2], `c1ccc(Nc2cccc3ccccc23)cc1` [N-phenyl-1-naphthylamine] registered a Kd of 2.71 µM.
